What was measured:
Format in all cases: in vivo
[1] = tested on: livid amaranth (Amaranthus); assay: Selective herbicide effect test to field crop (soil spray treatment before germination), Test example 3, herbicide effect; conditions: 2 weeks after treatment, 100% = complete death
Procedure: (§1) • Preparing preparation of active compound • Carrier: DMF 5 parts by weight • Emulsifier: benzyloxy polyglycol ether 1 part by weight
(§2) A preparation of active compound is obtained as an emulsion by mixing 1 part by weight of active compound with the above amounts of carrier and emulsifier. A prescribed amount of preparation is diluted with water.
(§3) In a greenhouse, seeds of field crops [wheat (Triticum), corn (Zea), soy bean (Glycine)] and weeds [barnyardgrass (Echinochloa), southern crabgrass (Digitaria), livid amaranth (Amaranthus), fat hen (Chenopodium)] were sown on the surface layer of 16 cm^2 pots filled with field soil (sandy loam), and covered with soil. After 1 day, the prescribed diluted solutions of preparations of respective active compounds, which were prepared according to Test example 1, were sprayed to the soil. After 2 weeks from the treatment, phytotoxicity to crops and herbicide effect of respective compounds were examined. In the evaluation of herbicide effect and phytotoxicity, complete death was evaluated as 100%, and the case of no herbicide effect or no phytotoxicity was evaluated as 0%. When the herbicide effect is 80% or more, such active compounds are evaluated to have practical utility as a herbicide. When phytotoxicity is 20% or less, such active compounds are evaluated to have excellent safety as a herbicide.

[2] = tested on: barnyardgrass (Echinochloa); assay: as above; conditions: 2 weeks after treatment, 100% = complete death
Procedure: as §1, §2, §3

fat hen (Chenopodium) = assay: as above; conditions: 2 weeks after treatment, 100% = complete death
Procedure: as §1, §2, §3

[3] = tested on: southern crabgrass (Digitaria); assay: as above; conditions: 2 weeks after treatment, 100% = complete death
Procedure: as §1, §2, §3

[4] = tested on: livid amaranth (Amaranthus); assay: Herbicide effect test against field weed (soil spray treatment before germination), Test example 1; conditions: dosage 500 g ai/ha, 2 weeks after treatment, 100% = complete death, 0% = no effect
Procedure: as §1, §2
(§4) In a greenhouse, seeds of field weeds [livid amaranth (Amaranthus), green bristle grass (Setaria)] were sown on the surface layer of 16 cm^2 pots filled with field soil (sandy loam) , and covered with soil. Here, one kind of grass was sown for one pot. Immediately after sowing, the prescribed diluted solutions which were prepared according to the above preparation method of the preparation of respective active compounds were sprayed to soil. After 2 weeks from the treatment, the herbicide effect of each of the compounds was examined. In the evaluation of herbicide effect, complete death was evaluated as 100%, and the case of no herbicide effect was evaluated as 0%. When the herbicide effect is 80% or more, such active compounds are evaluated to have practical utility as a herbicide.

[5] = tested on: green bristle grass (Setaria); assay: as above; conditions: dosage 500 g ai/ha, 2 weeks after treatment, 100% = complete death, 0% = no effect
Procedure: as §1, §2, §4

wheat (Triticum) = assay: Selective herbicide effect test to field crop (soil spray treatment before germination), Test example 3, phytotoxicity; conditions: 2 weeks after treatment, 100% = complete death, 0% = no phytotoxicity
Procedure: as §1, §2, §3

corn (Zea) = assay: as above; conditions: 2 weeks after treatment, 100% = complete death, 0% = no phytotoxicity
Procedure: as §1, §2, §3

soy bean (Glycine) = assay: as above; conditions: 2 weeks after treatment, 100% = complete death, 0% = no phytotoxicity
Procedure: as §1, §2, §3

Green bristle grass = assay: Herbicide effect test against field weed (foliage spray treatment after germination), Test example 2; conditions: foliage spray treatment after germination (2nd-3rd leaf stage); dosage 500 g ai/ha; 2 weeks after treatment; 100% = complete death
Procedure: as §1, §2, §4
In a greenhouse, to 16 cm^2 pots filled with field soil (sandy loam), seedling plants (2nd-3rd leaf stage) of a field weed (Green bristle grass) were transplanted. After 1 day, the prescribed diluted solutions of preparations of respective active compounds, which were prepared according to the above Test example 1, were sprayed from the upside of the plant body. After 2 weeks from the treatment, the herbicide effect of each of the compounds was examined. Evaluation of herbicidal effect was carried out similarly to Test example 1.

fat hen = assay: Selective herbicide effect test to field crop (foliage spray treatment after germination), Test example 4, herbicide effect; conditions: 14 days after spraying, 100% = complete death, 0% = no effect
Procedure: as §1, §2, §3
(§5) In a greenhouse, respective seeds of weeds (barnyardgrass, southern crabgrass, fat hen, and livid amaranth) and crops (wheat, corn, and soy bean) were sown on the surface layer of pots filled with field soil, and covered with soil. After one day and 10 days (average 2nd leaf stage for weeds) from the sowing and covering the seeds with soil, the prescribed diluted solutions of preparations of respective active compounds, which were prepared according to Test example 1, were uniformly sprayed onto the soil surfaces of respective test pots and the foliage parts of the plant bodies.
(§6) After 14 days from the spraying, the degree of herbicide effect was examined. Evaluation of herbicide effect and phytotoxicity were carried out similarly to Test example 3.

livid amaranth = assay: as above; conditions: 14 days after spraying, 100% = complete death, 0% = no effect
Procedure: as §1, §2, §3, §5, §6

southern crabgrass = assay: as above; conditions: 14 days after spraying, 100% = complete death, 0% = no effect
Procedure: as §1, §2, §3, §5, §6

barnyardgrass = assay: as above; conditions: 14 days after spraying, 100% = complete death, 0% = no effect
Procedure: as §1, §2, §3, §5, §6

soy bean = assay: Selective herbicide effect test to field crop (foliage spray treatment after germination), Test example 4, phytotoxicity; conditions: 14 days after spraying, 100% = complete death, 0% = no phytotoxicity
Procedure: as §1, §2, §3, §5, §6

corn = assay: as above; conditions: 14 days after spraying, 100% = complete death, 0% = no phytotoxicity
Procedure: as §1, §2, §3, §5, §6

wheat = assay: as above; conditions: 14 days after spraying, 100% = complete death, 0% = no phytotoxicity
Procedure: as §1, §2, §3, §5, §6

| SMILES | Herbicide effect, Livid amaranth ([1]; dosage 320 g/ha) [%] | herbicide effect, Barnyardgrass ([2]; dosage 320 g/ha) [%] | herbicide effect, Fat hen (fat hen (Chenopodium); dosage 320 g/ha) [%] | herbicide effect, Southern crabgrass ([3]; dosage 320 g/ha) [%] | Herbicide effect, Green bristle grass (Green bristle grass) [%] | herbicide effect, Fat hen (fat hen; 320 g/ha) [%] | Herbicide effect, Livid amaranth (livid amaranth; 320 g/ha) [%] | herbicide effect, Southern crabgrass (southern crabgrass; 320 g/ha) [%] | herbicide effect, Barnyardgrass (barnyardgrass; 320 g/ha) [%] | phytotoxicity, Soy bean (soy bean; 320 g/ha) [%] | phytotoxicity, Corn (corn; 320 g/ha) [%] | phytotoxicity, Wheat (wheat; 320 g/ha) [%] | also measured |
| --- | --- | --- | --- | --- | --- | --- | --- | --- | --- | --- | --- | --- | --- |
| Cc1nc(-n2cncn2)ccc1C(=O)C1C(=O)CCCC1=O [1-1, 2-{[2-methyl-6-(1H-1,2,4-triazol-1-yl)pyridin-3-yl]carbonyl}cyclohexan-1,3-dione] | 80 | 100 | 100 | 100 |  |  |  |  |  |  |  |  | Herbicide effect, Livid amaranth [4]: 100%; Herbicide effect, Green bristle grass [5]: 100% |
| O=C1CCCC(O)=C1C(=O)c1ccc(-n2cncn2)nc1COCC(F)(F)F [1-28] | 90 | 100 | 100 | 100 |  |  |  |  |  |  |  |  | phytotoxicity, Wheat (wheat (Triticum); dosage 320 g/ha): 0%; phytotoxicity, Corn (corn (Zea); dosage 320 g/ha): 5%; phytotoxicity, Soy bean (soy bean (Glycine); dosage 320 g/ha): 10% |
| CSCc1nc(-n2cncn2)ccc1C(=O)C1=C(O)CCCC1=O [1-36] |  |  |  |  | 100 | 90 | 80 | 100 | 100 | 50 | 10 | 0 |  |
| CS(=O)(=O)Cc1nc(-n2cncn2)ccc1C(=O)C1=C(O)CCCC1=O [1-56] |  |  |  |  |  | 90 | 80 | 100 | 100 | 50 | 50 | 0 |  |
| COCCOCc1nc(-n2cncn2)ccc1C(=O)C1=C(O)CCCC1=O [1-66] |  |  |  |  | 90 | 100 | 100 | 100 | 100 | 50 | 50 | 10 |  |
| Cc1nc(-n2cncn2)ccc1C(=O)C1=C(O)CCC(C)C1=O (stereo not shown) [1-115] | 90 | 100 | 100 | 100 | 100 |  |  |  |  |  |  |  | phytotoxicity, Wheat (wheat (Triticum); dosage 320 g/ha): 0%; phytotoxicity, Corn (corn (Zea); dosage 320 g/ha): 0%; phytotoxicity, Soy bean (soy bean (Glycine); dosage 320 g/ha): 10% |
| Cc1nc(-n2cncn2)ccc1C(=O)C1=C(O)CCC(C)(C)C1=O [1-457] |  |  |  |  | 100 | 100 | 100 | 100 | 100 | 40 | 50 | 20 |  |
| Cc1nc(-n2cncn2)ccc1C(=O)C1=C(O)C(C)(C)C(=O)C(C)(C)C1=O [1-685] |  |  |  |  |  |  |  |  |  |  |  |  | phytotoxicity, Wheat (wheat (Triticum); dosage 80 g/ha): 40%; phytotoxicity, Corn (corn (Zea); dosage 80 g/ha): 30%; phytotoxicity, Soy bean (soy bean (Glycine); dosage 80 g/ha): 10%; Herbicide effect, Livid amaranth ([1]; dosage 80 g/ha): 90%; herbicide effect, Barnyardgrass ([2]; dosage 80 g/ha): 100%; herbicide effect, Fat hen (fat hen (Chenopodium); dosage 80 g/ha): 90%; herbicide effect, Southern crabgrass ([3]; dosage 80 g/ha): 100% |
| Cc1nc(-n2cncn2)ccc1C(=O)c1cnn(C)c1O [2-1] |  |  |  |  |  |  |  |  |  |  |  |  | Herbicide effect, Livid amaranth [4]: 100%; Herbicide effect, Green bristle grass [5]: 100%; herbicide effect, Fat hen (fat hen; 80 g/ha): 90%; Herbicide effect, Livid amaranth (livid amaranth; 80 g/ha): 100%; herbicide effect, Southern crabgrass (southern crabgrass; 80 g/ha): 95%; herbicide effect, Barnyardgrass (barnyardgrass; 80 g/ha): 100%; phytotoxicity, Soy bean (soy bean; 80 g/ha): 50%; phytotoxicity, Corn (corn; 80 g/ha): 5%; phytotoxicity, Wheat (wheat; 80 g/ha): 0% |
| Cc1nc(-n2cncn2)ccc1C(=O)c1c(C)nn(C)c1O [2-229] |  |  |  |  |  | 90 | 100 | 100 | 100 | 60 | 50 | 10 | Herbicide effect, Livid amaranth [4]: 100%; Herbicide effect, Green bristle grass [5]: 100% |
| Cc1nc(-n2cncn2)ccc1C(=O)c1cnoc1C1CC1 [3-115] | 90 | 100 | 100 | 100 | 100 |  |  |  |  |  |  |  | phytotoxicity, Wheat (wheat (Triticum); dosage 320 g/ha): 5%; phytotoxicity, Corn (corn (Zea); dosage 320 g/ha): 10%; phytotoxicity, Soy bean (soy bean (Glycine); dosage 320 g/ha): 20% |

Source: patent US8658798B2, “Herbicide triazolylpyridine ketones” (Bayer Cropscience AG, priority 2007, dated 2014)
